The values below come from patent US8927587B2, “Chemical compounds” (Pfizer Limited, priority 2012, dated 2015).

T1 sequence (Q9Y5Y9 whole entry): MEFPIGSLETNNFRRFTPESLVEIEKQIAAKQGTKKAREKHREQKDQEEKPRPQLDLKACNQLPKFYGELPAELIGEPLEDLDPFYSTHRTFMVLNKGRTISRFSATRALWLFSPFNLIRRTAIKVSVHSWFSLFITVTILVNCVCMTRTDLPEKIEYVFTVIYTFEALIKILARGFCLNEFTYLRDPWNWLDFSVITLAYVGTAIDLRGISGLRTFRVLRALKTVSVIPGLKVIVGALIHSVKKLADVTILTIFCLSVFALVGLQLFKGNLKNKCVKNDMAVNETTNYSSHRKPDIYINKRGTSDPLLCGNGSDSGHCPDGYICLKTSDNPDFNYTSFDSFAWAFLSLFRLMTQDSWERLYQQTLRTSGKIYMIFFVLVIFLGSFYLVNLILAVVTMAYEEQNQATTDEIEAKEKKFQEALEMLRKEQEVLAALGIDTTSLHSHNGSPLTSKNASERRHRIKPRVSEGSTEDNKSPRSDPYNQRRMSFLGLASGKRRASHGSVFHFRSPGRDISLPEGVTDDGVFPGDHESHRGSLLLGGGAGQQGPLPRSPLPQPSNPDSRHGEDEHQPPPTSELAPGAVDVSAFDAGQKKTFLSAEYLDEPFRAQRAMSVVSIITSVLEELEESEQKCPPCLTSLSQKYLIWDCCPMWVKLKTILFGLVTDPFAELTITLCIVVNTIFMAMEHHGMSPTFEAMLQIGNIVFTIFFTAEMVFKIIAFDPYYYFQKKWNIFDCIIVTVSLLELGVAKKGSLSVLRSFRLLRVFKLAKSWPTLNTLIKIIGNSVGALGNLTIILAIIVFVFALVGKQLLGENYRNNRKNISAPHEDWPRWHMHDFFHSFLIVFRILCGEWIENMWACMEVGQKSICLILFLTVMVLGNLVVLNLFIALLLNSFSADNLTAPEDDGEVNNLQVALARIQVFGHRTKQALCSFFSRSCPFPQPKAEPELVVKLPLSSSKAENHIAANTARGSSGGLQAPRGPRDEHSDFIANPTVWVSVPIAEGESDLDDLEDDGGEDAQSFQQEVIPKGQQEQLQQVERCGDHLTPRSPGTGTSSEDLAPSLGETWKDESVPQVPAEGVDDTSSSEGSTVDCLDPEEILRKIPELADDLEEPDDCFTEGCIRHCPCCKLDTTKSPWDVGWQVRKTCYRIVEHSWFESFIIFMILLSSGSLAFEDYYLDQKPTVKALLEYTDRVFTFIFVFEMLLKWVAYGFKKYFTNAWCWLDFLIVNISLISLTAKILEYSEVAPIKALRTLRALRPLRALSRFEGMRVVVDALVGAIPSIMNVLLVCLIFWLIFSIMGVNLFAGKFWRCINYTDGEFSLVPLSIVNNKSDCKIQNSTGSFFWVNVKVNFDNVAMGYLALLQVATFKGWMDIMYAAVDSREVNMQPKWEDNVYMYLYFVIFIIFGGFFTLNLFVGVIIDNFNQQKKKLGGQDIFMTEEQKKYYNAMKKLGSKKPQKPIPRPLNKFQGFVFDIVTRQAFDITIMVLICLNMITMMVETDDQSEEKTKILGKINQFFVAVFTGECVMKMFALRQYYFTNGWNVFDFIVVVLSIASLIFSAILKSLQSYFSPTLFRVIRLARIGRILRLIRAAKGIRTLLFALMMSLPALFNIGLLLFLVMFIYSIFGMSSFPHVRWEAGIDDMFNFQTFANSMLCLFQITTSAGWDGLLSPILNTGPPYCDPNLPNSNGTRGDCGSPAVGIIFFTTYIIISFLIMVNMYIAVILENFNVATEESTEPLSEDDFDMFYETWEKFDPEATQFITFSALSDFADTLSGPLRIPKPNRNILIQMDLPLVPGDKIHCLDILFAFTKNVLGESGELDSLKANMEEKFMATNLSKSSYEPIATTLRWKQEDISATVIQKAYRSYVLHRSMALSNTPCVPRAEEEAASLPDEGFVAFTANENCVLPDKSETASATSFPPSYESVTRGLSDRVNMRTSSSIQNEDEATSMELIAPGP

One assay addresses T1, hNav1.8 (Homo sapiens, UniProt Q9Y5Y9).
T1 construct: host or cells: HEK cells, stably transfected
Nature of the assay: hNav1.8 whole-cell patch-clamp electrophysiology (conventional or PatchXpress 7000) in stably transfected HEK cells.
Conditions: not given
Format: cell-based. An excerpt: The ability of the benzimidazole derivatives of the formula (I) to inhibit the Nav1.8 channel may be measured using the assay described below.
HEK cells stably transfected with hNav1.8, purchased from Millipore (Millipore Corp., Billerica, Mass. 01821), were maintained according to manufacturer's instructions. For electrophysiological studies, cells were removed from the culture flask by brief trypsinization and re-plated at low density onto glass cover slips. Cells were typically used for electrophysiological experiments within 24 to 72 h after plating.
Cover slips containing HEK cells expressing hNav1.8 were placed in a bath on the stage of an inverted microscope and perfused (approximately 1 ml/min) with extracellular solution of the following composition: 138 mM NaCl, 2 mM CaCl2, 5.4 mM KCl, 1 mM MgCl2, 10 mM glucose, and 10 mM HEPES, pH 7.4, with NaOH. […] The osmolarity of the extracellular and intracellular solutions was 300 mOsm/kg and 295 mOsm/kg, respectively. All recordings were made at room temperature (22-24° C.) using AXOPATCH 200B amplifiers and PCLAMP software (Axon Instruments, Burlingame, Calif.).
hNav1.8 currents in HEK cells were measured using the whole-cell configuration of the patch-clamp technique (Hamill et al., 1981). Uncompensated series resistance was typically 2 to 5 mega ohms and >85% series resistance compensation was routinely achieved. As a result, voltage errors were negligible and no correction was applied. Current records were acquired at 20 to 50 KHz and filtered at 5 to 10 KHz.
HEK cells stably transfected with hNav1.8 were viewed under Hoffman contrast optics and placed in front of an array of flow pipes emitting either control or compound-containing extracellular solutions. All compounds were dissolved in dimethyl sulfoxide to make 10 mM stock solutions, which were then diluted into extracellular solution to attain the final concentrations desired.
The voltage-dependence of inactivation was determined by applying a series of depolarizing prepulses (8 sec long in 10 mV increments) from a negative holding potential. The voltage was then immediately stepped to 0 mV to assess the magnitude of the sodium current. Currents elicited at 0 mV were plotted as a function of prepulse potential to allow estimation of the voltage at which 50% of the channels were inactivated (midpoint of inactivation or V1/2). Compounds were tested for their ability to inhibit hNav1.8 sodium channels by activating the channel with a 20 msec voltage step to 0 mV following an 8 second conditioning prepulse to the empirically determined V1/2. Compound effect (% inhibition) was determined by difference in current amplitude before and after application of test compounds. For ease of comparison, “estimated IC50” values were calculated from single point electrophysiology data by the following equation, (tested concentration, uM)×(100-% inhibition/% inhibition). Inhibition values<20% and >80% were excluded from the calculation.
In some cases electrophysiological assays were conducted with PatchXpress 7000 hardware and associated software (Molecular Devices Corp). All assay buffers and solutions were identical to those used in conventional whole-cell voltage clamp experiments described above. hNav1.8 cells were grown as above to 50%-80% confluency and harvested by trypsinization. Trypsinized cells were washed and resuspended in extracellular buffer at a concentration of 1×10^6 cells/ml. The onboard liquid handling facility of the PatchXpress was used for dispensing cells and application of test compounds. Determination of the voltage midpoint of inactivation was as described for conventional whole-cell recordings. Cells were then voltage-clamped to the empirically determined V1/2 and current was activated by a 20 msec voltage step to 0 mV.
Estimated IC50 values for the compounds of formula (I) exemplified above are as follows. […]
`CC(C)(C)c1ccc2[nH]c(C3(N)CCCCC3)nc2c1` [Example 17, 1-(5-tert-Butyl-1H-benzimidazol-2-yl)cyclohexanamine] registered an IC50 of 468 nM.

Staying with this assay, now noted: estimated IC50 calculated from single point % inhibition; HEK cells expressing hNav1.8; 8 sec prepulse to V1/2, 20 msec step to 0 mV; average of replicates; read-out: Nav1.8 EIC50.
On to `C[C@@H](O)[C@@H](N)c1nc2cc(C(C)(C)C)ccc2[nH]1` [Example 18, (1S,2R)-1-Amino-1-(5-tert-butyl-1H-benzimidazol-2-yl)propan-2-ol], for which the IC50 is 487 nM.

With `C[C@H](O)[C@H](N)c1nc2cc(C(C)(C)C)ccc2[nH]1` [Example 19, (1R,2S)-1-Amino-1-(5-tert-butyl-1H-benzimidazol-2-yl)propan-2-ol], the IC50 is 176 nM.

Regarding `CC(C)(C)c1ccc2[nH]c([C@@H](N)CO)nc2c1` [Example 20, (2R)-2-Amino-2-(5-tert-butyl-1H-benzimidazol-2-yl)ethanol], the IC50 is 106 nM.

With `CO[C@H](C)[C@H](N)c1nc2cc(C(C)(C)C)ccc2[nH]1` [Example 21, (1R,2R)-1-(5-tert-Butyl-1H-benzimidazol-2-yl)-2-methoxypropan-1-amine], the IC50 is 32.6 nM.

For the compound `CC(C)(C)c1ccc2[nH]c([C@@H]3C[C@H](O)CN3)nc2c1` [Example 22, (3S,5S)-5-(5-tert-Butyl-1H-benzimidazol-2-yl)pyrrolidin-3-ol], the IC50 is 108 nM.

As for `CC[C@@H](C)[C@@H](N)c1nc2cc(C(C)(C)C)ccc2[nH]1` [Example 23, (1R,2R)-1-(5-tert-Butyl-1H-benzimidazol-2-yl)-2-methylbutan-1-amine], the IC50 is 44.6 nM.

As for `CC(C)(C)c1ccc2[nH]c([C@H]3C[C@@H](O)CN3)nc2c1` [Example 24, (3R,5R)-5-(5-tert-Butyl-1H-benzimidazol-2-yl)pyrrolidin-3-ol], the IC50 is 58 nM.

Consider `CC(C)(C)c1ccc2[nH]c([C@H]3CCCN3)nc2c1` [Example 25, 5-tert-Butyl-2-[(2R)-pyrrolidin-2-yl]-1H-benzimidazole], for which the IC50 is 74.2 nM.

As for `CC(C)(C)c1ccc2[nH]c([C@@H]3C[C@@H](O)CN3)nc2c1` [Example 26, (3R,5S)-5-(5-tert-Butyl-1H-benzimidazol-2-yl)pyrrolidin-3-ol], the IC50 is 31.5 nM.

As for `COC(C)(C)C(N)c1nc2cc(C(C)(C)C)ccc2[nH]1` (stereo not shown) [Example 27, 1-(5-tert-Butyl-1H-benzimidazol-2-yl)-2-methoxy-2-methylpropan-1-amine], the IC50 was 153 nM.

For the compound `CC(C)(C)c1ccc2[nH]c([C@H](N)CC(N)=O)nc2c1` [Example 28, (3R)-3-Amino-3-(5-tert-butyl-1H-benzimidazol-2-yl)propanamide], the IC50 is 130 nM.

`CCC(C)(C)c1ccc2[nH]c([C@@H]3C[C@H](O)CN3)nc2c1` [Example 29, (3S,5S)-5-[5-(2-Methylbutan-2-yl)-1H-benzimidazol-2-yl]pyrrolidin-3-ol]: the IC50 was 390 nM.

For the compound `CCC(C)(C)c1ccc2[nH]c([C@@H](N)CC(N)=O)nc2c1` [Example 30, (3S)-3-Amino-3-[5-(2-methylbutan-2-yl)-1H-benzimidazol-2-yl]propanamide], the IC50 is 148 nM.

For the compound `CCC(C)(C)c1ccc2[nH]c([C@@H](N)COC)nc2c1` [Example 31, (1R)-2-Methoxy-1-[5-(2-methylbutan-2-yl)-1H-benzimidazol-2-yl]ethanamine], the IC50 was 125 nM.

In the case of `N#Cc1ccc(-c2ccc3[nH]c([C@@H](N)C4CCCC4)nc3c2)cc1` [Example 32, 4-{2-[(S)-Amino(cyclopentyl)methyl]-1H-benzimidazol-5-yl}benzonitrile], the IC50 was 163 nM.

With `CCC(C)(C)c1ccc2[nH]c(C3(N)Cc4ccccc4C3)nc2c1` [Example 33, 2-[5-(2-Methylbutan-2-yl)-1H-benzimidazol-2-yl]-2,3-dihydro-1H-inden-2-amine], the IC50 is 266 nM.

As for `N#Cc1ccc(-c2ccc3[nH]c(C4(N)Cc5ccccc5C4)nc3c2)cc1` [Example 34, 4-[2-(2-Amino-2,3-dihydro-1H-inden-2-yl)-1H-benzimidazol-5-yl]benzonitrile], the IC50 was 30.6 nM.

Turning to `CCC(C)(C)c1ccc2[nH]c([C@H](C)N)nc2c1` [Example 35, (1S)-1-[5-(2-Methylbutan-2-yl)-1H-benzimidazol-2-yl]ethanamine], the IC50 is 171 nM.

Turning to `N#Cc1ccc(-c2ccc3[nH]c([C@H](N)c4ccccc4)nc3c2)cc1` [Example 36, 4-{2-[(R)-Amino(phenyl)methyl]-1H-benzimidazol-5-yl}benzonitrile], the IC50 was 227 nM.

Consider `CCC(C)(C)c1ccc2[nH]c([C@H]3NCC[C@@H]3O)nc2c1` [Example 37, (2R,3S)-2-[5-(2-Methylbutan-2-yl)-1H-benzimidazol-2-yl]pyrrolidin-3-ol], for which the IC50 was 650 nM.

With `CCC(C)(C)c1ccc2[nH]c([C@@H](N)[C@@H](C)OC)nc2c1` [Example 38, (1R,2R)-2-Methoxy-1-[5-(2-methylbutan-2-yl)-1H-benzimidazol-2-yl]propan-1-amine], the IC50 was 41.9 nM.

Regarding `CCC(C)(C)c1ccc2[nH]c([C@@H](N)[C@@H](C)O)nc2c1` [Example 39, (1R,2R)-1-Amino-1-[5-(2-methylbutan-2-yl)-1H-benzimidazol-2-yl]propan-2-ol], the IC50 was 54.2 nM.

`C[C@@H](O)[C@H](N)c1nc2cc(-c3ccc(C#N)cc3)ccc2[nH]1` [Example 40, 4-{2-[(1R,2R)-1-Amino-2-hydroxypropyl]-1H-benzimidazol-5-yl}benzonitrile]: the IC50 was 77.1 nM.

On to `CCC(C)(C)c1ccc2[nH]c([C@@H](C)N)nc2c1` [Example 41, (1R)-1-[5-(2-Methylbutan-2-yl)-1H-benzimidazol-2-yl]ethanamine], for which the IC50 was 648 nM.

With `N#Cc1ccc(-c2ccc3[nH]c([C@@H](N)c4ccccc4)nc3c2)cc1` [Example 42, 4-{2-[(S)-Amino(phenyl)methyl]-1H-benzimidazol-5-yl}benzonitrile], the IC50 is 122 nM.

Regarding `N#Cc1ccc(-c2ccc3[nH]c([C@H]4C[C@@H](O)CN4)nc3c2)cc1` [Example 43, 4-{2-[(2R,4R)-4-Hydroxypyrrolidin-2-yl]-1H-benzimidazol-5-yl}benzonitrile], the IC50 was 842 nM.

As to `N#Cc1ccc(-c2ccc3[nH]c([C@H](N)CC(N)=O)nc3c2)cc1` [Example 44, (3R)-3-Amino-3-[5-(4-cyanophenyl)-1H-benzimidazol-2-yl]propanamide], the IC50 is 890 nM.

Turning to `N#Cc1ccc(-c2ccc3[nH]c([C@@H](N)CC(N)=O)nc3c2)cc1` [Example 45, (3S)-3-Amino-3-[5-(4-cyanophenyl)-1H-benzimidazol-2-yl]propanamide], the IC50 is 203 nM.

Turning to `CC(C)C[C@@H](N)c1nc2cc(-c3ccc(C#N)cc3)ccc2[nH]1` [Example 47, 4-{2-[(1R)-1-Amino-3-methylbutyl]-1H-benzimidazol-5-yl}benzonitrile], the IC50 is 781 nM.

Turning to `CC(C)(C)[C@@H](N)c1nc2cc(-c3ccc(C#N)cc3)ccc2[nH]1` [Example 48, 4-{2-[(1R)-1-Amino-2,2-dimethylpropyl]-1H-benzimidazol-5-yl}benzonitrile], the IC50 was 469 nM.

With `N#Cc1ccc(-c2ccc3[nH]c([C@@H]4C[C@H](O)CN4)nc3c2)cc1` [Example 49, 4-{2-[(2S,4S)-4-Hydroxypyrrolidin-2-yl]-1H-benzimidazol-5-yl}benzonitrile], the IC50 is 1050 nM.

Turning to `N#Cc1ccc(-c2ccc3[nH]c([C@H]4NCC[C@@H]4O)nc3c2)cc1` [Example 50, 4-{2-[(2R,3S)-3-Hydroxypyrrolidin-2-yl]-1H-benzimidazol-5-yl}benzonitrile], the IC50 was 1840 nM.

Turning to `N#Cc1ccc(-c2ccc3[nH]c([C@@H]4CCCCN4)nc3c2)cc1` [Example 51, 4-{2-[(2S)-Piperidin-2-yl]-1H-benzimidazol-5-yl}benzonitrile], the IC50 is 3130 nM.
